Measured values: patent US11865126B2, “Method for treating anxiety disorders, headache disorders, and eating disorders with psilocybin” (priority 2019, dated 2024)

Test system: healthy subjects
Experiment: Phase 1 healthy volunteer study, single oral dose: treatment-emergent adverse events
Type: in vivo, human
Protocol: A Phase 1 randomized, double-blind, placebo-controlled study to evaluate the effect of psilocybin on cognitive and emotional processing as compared to placebo in healthy volunteers was conducted. The study investigated the short-term (Day 7) and long-term (Day 28) effects of moderate (10 mg) and high doses (25 mg) of psilocybin on key domains of cognition, such as episodic memory, attention, working and spatial memory, social cognition and elements of executive function, including cognitive flexibility.
90 healthy subjects were studied. Approximately 50% of the subjects were psilocybin-naïve. For subjects with prior psilocybin experience, the last exposure was at least 1 year prior to the signing of the Informed Consent Form (ICF). Approximately 50% of the subjects were female. Subjects were stratified by sex and age (18-35 years old; >35 years old).
Each subject was assigned 1 treatment bottle containing 5 capsules packaged in a double-blind fashion, depending on the randomized treatment arm, the bottle contained one of the following: • a. Psilocybin 10 mg: 2×5-mg oral psilocybin capsules plus 3× placebo capsules • b. Psilocybin 25 mg: 5×5-mg oral psilocybin capsules • c. Placebo: 5× placebo capsules
Each 5-mg oral psilocybin capsule comprised 5 mg crystalline psilocybin in the form of Polymorph A, 12.5 mg of SMCC 50, 79.5 mg of SMCC 90, 1 mg sodium starch glycolate, 1 mg colloidal silicon dioxide, and 1 mg sodium stearyl fumarate
Adverse events: Throughout the course of the study, all AEs were monitored and recorded. Each AE was classified according to the following criteria: • i. […] Moderate: The AE produces some impairment of functioning, but is not hazardous to the subject's health. • iii. Severe: The AE produces significant impairment of functioning or incapacitation and is a definite hazard to the subject's health.
Selected Adverse Events of included: • (a) Euphoric mood • (b) Dissociative disorder • (c) Hallucination • (d) Psychotic disorder • (e) Cognitive disorder • (f) Disturbance in attention • (g) Altered mood • (h) Impairment of psychomotor skills • (i) Inappropriate affect • (j) Overdose • (k) Intentional product misuse • (l) Illusion
For example, drug-induced hepatitis that resolved without evidence of hepatic failure would not be considered life threatening even though drug-induced hepatitis can be fatal. • (c) Inpatient hospitalization or prolongation of existing hospitalization. • (d) Persistent or significant disability/incapacity. • (e) Congenital anomaly/birth defect in the offspring of a subject who received psilocybin. • (f) Other: Important medical events that may not result in death, be life-threatening, or require hospitalization, may be considered an SAE when, based upon appropriate medical judgment, they may jeopardize the subject and may require medical or surgical intervention to prevent one of the outcomes listed in this definition. […] Visits:
Visit 3 (V3): Drug Administration (Day 0): The subject was asked to eat a light breakfast at least two hours prior to coming to the clinic for study drug administration. On Day 0 (V3), the subject underwent the SSTS, had vital signs obtained, medications reviewed, AEs recorded and eligibility reviewed prior to being randomized to study drug. The study drug was administered to up to six subjects simultaneously in individual beds separated by a curtain. The subject was invited to put on eyeshades and headphones, lie down and listen to calming music for the rest of the session (six hours). The subject was supported 1:1 with a chaperone and supervised by the study psychiatrist and lead therapist.
Recording of adverse events and prior/concomitant medication was performed at each visit.
During administration of psilocybin, each subject received one on one support from a trained assisting therapist and each dosing session was supervised by a study psychiatrist and a lead therapist. […]

In the case of `CN(C)CCc1c[nH]c2cccc(OP(=O)(O)O)c12` [psilocybin], the “Nervous system disorders, worst severity Moderate: Events” value (25 mg) is reported as 10, the “Nervous system disorders, worst severity Severe: Events” value (25 mg) is reported as 1 and the “Nervous system disorders: Events” value (25 mg) is reported as 43. For the same molecule, the “Paraesthesia, worst severity Mild: Events” value (25 mg) was 3, the “Paraesthesia, worst severity Mild: N (%)” value (25 mg) was 3 (10.0) and the “Paraesthesia, worst severity Moderate: Events” value (25 mg) was 1. The “Paraesthesia, worst severity Severe: Events” value (25 mg) was 0, the “Paraesthesia, worst severity Severe: N (%)” value (25 mg) was 0 and the “Paraesthesia: Events” value (25 mg) was 4. For the same molecule, the “Psychiatric disorders, worst severity Mild: Events” value (25 mg) was 5, the “Psychiatric disorders, worst severity Moderate: Events” value (25 mg) was 45 and the “Psychiatric disorders, worst severity Severe: Events” value (25 mg) was 27. For the same molecule, the “Psychiatric disorders, worst severity Severe: N (%)” value (25 mg) was 9 (30.0), the “Respiratory, thoracic and mediastinal disorders: Events” value (25 mg) was 3 and the “Respiratory, thoracic and mediastinal disorders: N (%)” value (25 mg) was 3 (10.0). The “Somatic hallucination, worst severity Mild: Events” value (25 mg) was 2, the “Somatic hallucination, worst severity Moderate: Events” value (25 mg) was 2 and the “Somatic hallucination, worst severity Severe: Events” value (25 mg) was 2. For the same molecule, the “Somatic hallucination: Events” value (25 mg) was 6, the “Tension headache, worst severity Mild: Events” value (25 mg) was 4 and the “Tension headache, worst severity Moderate: Events” value (25 mg) was 2. The “Tension headache, worst severity Severe: Events” value (25 mg) was 0, the “Tension headache, worst severity Severe: N (%)” value (25 mg) was 0 and the “Tension headache: Events” value (25 mg) was 6. For the same molecule, the “Tension headache: N (%)” value (25 mg) was 6 (20.0), the “Time perception altered, worst severity Mild: Events” value (25 mg) was 2 and the “Time perception altered, worst severity Moderate: Events” value (25 mg) was 4. The “Time perception altered, worst severity Severe: Events” value (25 mg) was 0, the “Time perception altered, worst severity Severe: N (%)” value (25 mg) was 0 and the “Time perception altered: Events” value (25 mg) was 6. For the same molecule, the “Time perception altered: N (%)” value (25 mg) was 6 (20.0), the “Reported 'Mood altered' events: Being less judgmental” value (25 mg psilocybin (n = 30)) was 0 and the “Reported 'Mood altered' events: Calm” value (25 mg psilocybin (n = 30)) was 0. The “Reported 'Mood altered' events: Clarity of thought” value (25 mg psilocybin (n = 30)) was 1, the “Reported 'Mood altered' events: Contemplative state” value (25 mg psilocybin (n = 30)) was 1 and the “Reported 'Mood altered' events: Feeling more moody/sensitive” value (25 mg psilocybin (n = 30)) was 0. For the same molecule, the “Reported 'Mood altered' events: Feeling of adrenaline release” value (25 mg psilocybin (n = 30)) was 0, the “Reported 'Mood altered' events: Feeling rested” value (25 mg psilocybin (n = 30)) was 0 and the “Reported 'Mood altered' events: Increased compassion” value (25 mg psilocybin (n = 30)) was 1. For the same molecule, the “Reported 'Mood altered' events: Increased creativity” value (25 mg psilocybin (n = 30)) was 1, the “Reported 'Mood altered' events: Increased empathy” value (25 mg psilocybin (n = 30)) was 2 and the “Reported 'Mood altered' events: Increased sense of connectedness” value (25 mg psilocybin (n = 30)) was 1. The “Reported 'Mood altered' events: Increased wit” value (25 mg psilocybin (n = 30)) was 0, the “Reported 'Mood altered' events: Introspection” value (25 mg psilocybin (n = 30)) was 8 and the “Reported 'Mood altered' events: Laughter” value (25 mg psilocybin (n = 30)) was 1. The “Reported 'Mood altered' events: More socially upbeat” value (25 mg psilocybin (n = 30)) was 1, the “Reported 'Mood altered' events: Negative mood” value (25 mg psilocybin (n = 30)) was 0 and the “Reported 'Mood altered' events: Reflections” value (25 mg psilocybin (n = 30)) was 4. The “Reported 'Mood altered' events: Saw themselves from a new perspective” value (25 mg psilocybin (n = 30)) was 1, the “Reported 'Mood altered' events: Sense of oneness” value (25 mg psilocybin (n = 30)) was 2 and the “Reported 'Mood altered' events: Sense of openness” value (25 mg psilocybin (n = 30)) was 0. The “Reported 'Mood altered' events: Unusual appreciation of music” value (25 mg psilocybin (n = 30)) was 0, the “Any TEAE: % of subjects” value (25 mg, listed as Psilocybin) was “(96.7) %” and the “Affect lability, Events” value (Psilocybin 10 mg (N = 30)) was 5. For the same molecule, the “Change in sustained attention, Events” value (Psilocybin 10 mg (N = 30)) was 2, the “Depressed mood, Events” value (Psilocybin 10 mg (N = 30)) was 1 and the “Dissociative identity disorder, Events” value (Psilocybin 10 mg (N = 30)) was 2. The “Euphoric mood, Events” value (Psilocybin 10 mg (N = 30)) was 7, the “Hallucination, Events” value (Psilocybin 10 mg (N = 30)) was 3 and the “Hallucination, N (%)” value (Psilocybin 10 mg (N = 30)) was 3 (10.0). The “Hallucination, auditory, Events” value (Psilocybin 10 mg (N = 30)) was 4, the “Hallucination, gustatory, Events” value (Psilocybin 10 mg (N = 30)) was 1 and the “Hallucination, olfactory, Events” value (Psilocybin 10 mg (N = 30)) was 1. The “Hallucination, tactile, Events” value (Psilocybin 10 mg (N = 30)) was 2, the “Hallucination, visual, Events” value (Psilocybin 10 mg (N = 30)) was 20 and the “Illusion, Events” value (Psilocybin 10 mg (N = 30)) was 25. The “Memory impairment, Events” value (Psilocybin 10 mg (N = 30)) was 1, the “Mood altered, Events” value (Psilocybin 10 mg (N = 30)) was 23 and the “Nervous system disorders, Events” value (Psilocybin 10 mg (N = 30)) was 2. For the same molecule, the “Nervous system disorders, N (%)” value (Psilocybin 10 mg (N = 30)) was 2 (6.7), the “Psychiatric disorders, Events” value (Psilocybin 10 mg (N = 30)) was 104 and the “Psychomotor skills impaired, Events” value (Psilocybin 10 mg (N = 30)) was 1. The “Selected TEAE (any), Events” value (Psilocybin 10 mg (N = 30)) was 106, the “Selected TEAE (any), N (%)” value (Psilocybin 10 mg (N = 30)) was 27 (90.0) and the “Somatic hallucination, Events” value (Psilocybin 10 mg (N = 30)) was 8. For the same molecule, the “Substance-induced psychotic disorder, Events” value (Psilocybin 10 mg (N = 30)) was 0, the “Substance-induced psychotic disorder, N (%)” value (Psilocybin 10 mg (N = 30)) was 0 and the “Affect lability, Events” value (Psilocybin 25 mg (N = 30)) was 3. For the same molecule, the “Affect lability, N (%)” value (Psilocybin 25 mg (N = 30)) was 3 (10.0), the “Change in sustained attention, Events” value (Psilocybin 25 mg (N = 30)) was 0 and the “Change in sustained attention, N (%)” value (Psilocybin 25 mg (N = 30)) was 0. For the same molecule, the “Depressed mood, Events” value (Psilocybin 25 mg (N = 30)) was 2, the “Dissociative identity disorder, Events” value (Psilocybin 25 mg (N = 30)) was 2 and the “Euphoric mood, Events” value (Psilocybin 25 mg (N = 30)) was 8. For the same molecule, the “Hallucination, Events” value (Psilocybin 25 mg (N = 30)) was 2, the “Hallucination, auditory, Events” value (Psilocybin 25 mg (N = 30)) was 4 and the “Hallucination, gustatory, Events” value (Psilocybin 25 mg (N = 30)) was 0. For the same molecule, the “Hallucination, gustatory, N (%)” value (Psilocybin 25 mg (N = 30)) was 0, the “Hallucination, olfactory, Events” value (Psilocybin 25 mg (N = 30)) was 1 and the “Hallucination, tactile, Events” value (Psilocybin 25 mg (N = 30)) was 4. For the same molecule, the “Hallucination, visual, Events” value (Psilocybin 25 mg (N = 30)) was 22, the “Illusion, Events” value (Psilocybin 25 mg (N = 30)) was 26 and the “Memory impairment, Events” value (Psilocybin 25 mg (N = 30)) was 0. For the same molecule, the “Memory impairment, N (%)” value (Psilocybin 25 mg (N = 30)) was 0, the “Mood altered, Events” value (Psilocybin 25 mg (N = 30)) was 25 and the “Nervous system disorders, Events” value (Psilocybin 25 mg (N = 30)) was 0. The “Nervous system disorders, N (%)” value (Psilocybin 25 mg (N = 30)) was 0, the “Psychiatric disorders, Events” value (Psilocybin 25 mg (N = 30)) was 106 and the “Psychomotor skills impaired, Events” value (Psilocybin 25 mg (N = 30)) was 0. For the same molecule, the “Psychomotor skills impaired, N (%)” value (Psilocybin 25 mg (N = 30)) was 0, the “Selected TEAE (any), Events” value (Psilocybin 25 mg (N = 30)) was 106 and the “Selected TEAE (any), N (%)” value (Psilocybin 25 mg (N = 30)) was 27 (90.0). The “Somatic hallucination, Events” value (Psilocybin 25 mg (N = 30)) was 6 and the “Substance-induced psychotic disorder, Events” value (Psilocybin 25 mg (N = 30)) was 1.
